Assay results taken from ChEMBL document CHEMBL5661973, “BI 2536, a potent and selective inhibitor of polo-like kinase 1, inhibits tumor growth in vivo” (Curr Biol, 2007).
Active and inactive are the calls of the source. The calls are words filed in the database; no cut-off is given here.

Legend:
[1] = molecular target: T1, Dual specificity mitogen-activated protein kinase kinase 1 (Homo sapiens, UniProt Q02750); assay: Inhibition of MKK1 (unknown origin)
[2] = molecular target: Serine/threonine-protein kinase Sgk1 (Homo sapiens, UniProt O00141); assay: Inhibition of SGK (unknown origin)
BRO melanoma cell line = assay: Antiproliferative activity against human BRO melanoma cell line assessed as inhibition in cell growth incubated for 72 hrs by Alamar Blue dye based fluorescence spectrophotometric analysis; format: functional
[3] = molecular target: Receptor tyrosine-protein kinase erbB-4 (Homo sapiens, UniProt Q15303); assay: Inhibition of ErbB4 (unknown origin)
HeLa [4] = assay: Antimitotic activity against human HeLa cells assessed as DNA breakdown at 60 nM incubated after 24 hrs by flow cytometric analysis; format: functional, cell-based
[5] = molecular target: Platelet-derived growth factor receptor alpha (Homo sapiens, UniProt P16234); assay: Inhibition of PDGFRa (unknown origin)
HeLa [6] = assay: Antimitotic activity against human HeLa cells assessed as DNA breakdown at 60 nM incubated after 48 hrs by flow cytometric analysis; format: functional, cell-based
[7] = molecular target: Serine/threonine-protein kinase Nek6 (Homo sapiens, UniProt Q9HC98); assay: Inhibition of Nek6 (unknown origin)
[8] = molecular target: Macrophage-stimulating protein receptor (Homo sapiens, UniProt Q04912); assay: Inhibition of Ron (unknown origin)
HCT-116 [9] = assay: Antitumor activity against human HCT-116 cells xenografted female BomTac:NMRI-Foxn1nu mouse assessed as T/C at 40 mg/kg, iv once per week administrated for 2 consecutive days relative to control; format: functional; details: time 4 day
[10] = molecular target: T1, Dual specificity mitogen-activated protein kinase kinase 1; assay: Inhibition of MEK1 (unknown origin)
Mus musculus = organism: Mus musculus; assay: Inhibition of mouse Plk1
[11] = molecular target: Mitogen-activated protein kinase 14 (Homo sapiens, UniProt Q16539); assay: Inhibition of p38alpha (unknown origin)
[12] = molecular target: Platelet-derived growth factor receptor beta (Homo sapiens, UniProt P09619); assay: Inhibition of PDGFRb (unknown origin)
HeLa [13] = assay: Antimitotic activity against human HeLa cells assessed as change in anaphase at 25 nM incubated for 2 hrs by immunofluorescence analysis; format: functional, cell-based
[14] = molecular target: Serine/threonine-protein kinase B-raf (Homo sapiens, UniProt P15056); assay: Inhibition of B-RAF (unknown origin)
BXPC-3 = assay: Antitumor activity against human BXPC-3 cells xenografted female BomTac:NMRI-Foxn1nu mouse assessed as T/C at 50 mg/kg, iv twice per week administrated for 2 consecutive days relative to control; format: functional; details: time 4 day
[15] = molecular target: Serine/threonine-protein kinase PAK 2 (Homo sapiens, UniProt Q13177); assay: Inhibition of PAK2 (unknown origin)
[16] = molecular target: Tyrosine-protein kinase ABL1 (Homo sapiens, UniProt P00519); assay: Inhibition of Abl (unknown origin)
HeLa [17] = assay: Antimitotic activity against human HeLa cells assessed as appearance of monopolar polo spindles at 100 to 1000 nM incubated for 2 hrs by immunofluorescence analysis; format: functional, cell-based; details: dose 100-1000 nM
NCI-H460 [18] = assay: Antitumor activity against human NCI-H460 cells xenografted female BomTac:NMRI-Foxn1nu mouse assessed as increase in histone H3 phosphorylation at 60 mg/kg, iv after 24 hrs administration by immunohistochemical method; format: functional, organism-based
HeLa [19] = assay: Antimitotic activity against human HeLa cells assessed as change in telophase at 25 nM incubated for 2 hrs by immunofluorescence analysis; format: functional, cell-based
HeLa [20] = assay: Antimitotic activity against human HeLa cells assessed as arrest in G2/M phase measuring by accumulation in 4N DNA content at 10 nM incubated for 24 hrs by flow cytometric analysis; format: functional, cell-based
TERT-RPE1 [21] = assay: Antimitotic activity against hTERT-RPE1 cells assessed as remaining cell arrest at 100 nM by immunofluorescence analysis relative to control; format: functional, Homo sapiens
[22] = molecular target: Phosphatidylinositol 4,5-bisphosphate 3-kinase catalytic subunit alpha isoform (Homo sapiens, UniProt P42336); assay: Inhibition of PI3Ka (unknown origin)
Ephrin type-A receptor 3 = Ephrin type-A receptor 3 (Homo sapiens, UniProt P29320); assay: Inhibition of Hek (unknown origin)
HCT-116 [23] = assay: Antitumor activity against human HCT-116 cells xenografted female BomTac:NMRI-Foxn1nu mouse assessed as induction in tumor regression at 50 mg/kg, iv twice per week administrated for 2 consecutive days relative to control; format: functional, organism-based; details: time 4.0 day
HeLa [24] = assay: Antimitotic activity against human HeLa cells assessed as accumulation in cleaved PARP p85 fragment at 60 nM incubated after 48 hrs by westernblot analysis; format: functional, cell-based
[25] = Toxicity in against human HCT-116 cells xenografted female BomTac:NMRI-Foxn1nu mouse assessed as body weight change at 40 mg/kg, iv twice per week administrated for 2 consecutive days; format: organism-based; details: in vivo, 96 h, time 4 day
HeLa [26] = assay: Antimitotic activity against human HeLa cells assessed as change in S phase at 60 nM incubated for 48 hrs by flow cytometric analysis; format: functional, cell-based
NCI-H460 [27] = assay: Antitumor activity against human NCI-H460 cells xenografted female BomTac:NMRI-Foxn1nu mouse assessed as increase in mitotic index at 60 mg/kg, iv after 24 hrs administration by immunohistochemical method; format: functional, organism-based
HeLa [28] = assay: Antimitotic activity against human HeLa cells assessed as cell apoptosis at 60 nM incubated after 24 hrs by flow cytometric analysis; format: functional, cell-based
HeLa [29] = assay: Antimitotic activity against human HeLa cells assessed as cell cycle at 10 nM incubated for 2 hrs by immunofluorescence analysis; format: functional, cell-based
HCT-116 [30] = assay: Antitumor activity against human HCT-116 cells xenografted female BomTac:NMRI-Foxn1nu mouse assessed as apparent diffusion coefficient of water at 50 mg/kg, iv administration and measured on day 4 by MRI assay; format: functional, organism-based; details: time 4.0 day
[31] = molecular target: RAF proto-oncogene serine/threonine-protein kinase (Homo sapiens, UniProt P04049); assay: Inhibition of C-RAF (unknown origin)
HeLa [32] = assay: Antimitotic activity against human HeLa cells assessed as accumulation in cleaved PARP p85 fragment at 60 nM incubated after 24 hrs by westernblot analysis; format: functional, cell-based
NCI-H460 [33] = assay: Antitumor activity against human NCI-H460 cells xenografted female BomTac:NMRI-Foxn1nu mouse assessed as appearance of massive tumor cell at 60 mg/kg, iv after 48 hrs administration by TUNEL staining; format: functional, organism-based
[34] = molecular target: Mitogen-activated protein kinase 12 (Homo sapiens, UniProt P53778); assay: Inhibition of p38gamma (unknown origin)
[35] = molecular target: Mitogen-activated protein kinase 11 (Homo sapiens, UniProt Q15759); assay: Inhibition of p38beta (unknown origin)
Angiopoietin-1 receptor = Angiopoietin-1 receptor (Homo sapiens, UniProt Q02763); assay: Inhibition of Tie2 (unknown origin)
[36] = molecular target: RAC-beta serine/threonine-protein kinase (Homo sapiens, UniProt P31751); assay: Inhibition of PKBbeta (unknown origin)
HeLa [37] = assay: Antimitotic activity against human HeLa cells assessed as cell apoptosis at 60 nM incubated after 48 hrs by flow cytometric analysis; format: functional, cell-based
HeLa [38] = assay: Antimitotic activity against human HeLa cells assessed as accumulation of mitotic cells with spindles at 25 nM incubated for 2 hrs by immunofluorescence analysis; format: functional, cell-based
HeLa [39] = assay: Antimitotic activity against human HeLa cells assessed as cell arrest in G2/M phase at 60 nM incubated for 48 hrs by flow cytometric analysis; format: functional, cell-based
A549 = assay: Antitumor activity against human A549 cells xenografted female BomTac:NMRI-Foxn1nu mouse assessed as T/C at 50 mg/kg, iv twice per week administrated for 2 consecutive days relative to control; format: functional; details: time 4 day
HCT-116 [40] = assay: Antitumor activity against human HCT-116 cells xenografted female BomTac:NMRI-Foxn1nu mouse assessed as tumor suppression at 40 mg/kg, iv twice per week administrated for 2 consecutive days relative to control; format: functional; details: time 2 day
[41] = molecular target: Tyrosine-protein kinase CSK (Homo sapiens, UniProt P41240); assay: Inhibition of CSK (unknown origin)
TERT-RPE1 [42] = assay: Antimitotic activity against hTERT-RPE1 cells assessed as mitotic cell appearing typical polo phenotype at 100 nM by immunofluorescence analysis relative to control; format: functional, Homo sapiens
[43] = Toxicity in against human HCT-116 cells xenografted female BomTac:NMRI-Foxn1nu mouse assessed as body weight change at 40 mg/kg, iv once per week administrated for 2 consecutive days; format: organism-based; details: in vivo, 48 h, time 2 day
HeLa [44] = assay: Antimitotic activity against human HeLa cells assessed as appearance and distribution of phenotypes at 50 nM incubated for 2 hrs by immunofluorescence analysis; format: functional, cell-based
[45] = molecular target: Fibroblast growth factor receptor 3 (Homo sapiens, UniProt P22607); assay: Inhibition of FGFR3 (unknown origin)
[46] = molecular target: Mitogen-activated protein kinase 8 (Homo sapiens, UniProt P45983); assay: Inhibition of JNK1 (unknown origin)
NCI-H460 [47] = assay: Antitumor activity against human NCI-H460 cells xenografted female BomTac:NMRI-Foxn1nu mouse assessed as appearance of cell apoptosis at 60 mg/kg, iv after 47 hrs administration by MRI assay; format: functional, organism-based
HeLa [48] = assay: Antimitotic activity against human HeLa cells assessed as accumulation in depolymerization of microtubules in interphase cells at 2500 nM incubated for 2 hrs by immunostaining; format: functional, cell-based
HeLa [49] = assay: Antimitotic activity against human HeLa cells assessed as centrosomal gamma tubulin recruitment at 100 to 2500 nM incubated for 2 hrs by immunofluorescence analysis; format: functional, cell-based; details: dose 100-2500 nM
HeLa [50] = assay: Antimitotic activity against human HeLa cells assessed as monopolar asters at 100 to 2500 nM incubated for 2 hrs by immunofluorescence analysis; format: functional, cell-based; details: dose 100-2500 nM
HeLa [51] = assay: Antimitotic activity against human HeLa cells assessed as accumulation multipolar spindles at 100 to 2500 nM incubated for 2 hrs by immunofluorescence analysis; format: functional, cell-based; details: dose 100-2500 nM
HeLa S3 = assay: Antiproliferative activity against human HeLa S3 cells assessed as inhibition in cell growth incubated for 72 hrs by Alamar Blue dye based fluorescence spectrophotometric analysis; format: functional; details: HeLa S3, 72 h

T1 sequence (Q02750 whole entry): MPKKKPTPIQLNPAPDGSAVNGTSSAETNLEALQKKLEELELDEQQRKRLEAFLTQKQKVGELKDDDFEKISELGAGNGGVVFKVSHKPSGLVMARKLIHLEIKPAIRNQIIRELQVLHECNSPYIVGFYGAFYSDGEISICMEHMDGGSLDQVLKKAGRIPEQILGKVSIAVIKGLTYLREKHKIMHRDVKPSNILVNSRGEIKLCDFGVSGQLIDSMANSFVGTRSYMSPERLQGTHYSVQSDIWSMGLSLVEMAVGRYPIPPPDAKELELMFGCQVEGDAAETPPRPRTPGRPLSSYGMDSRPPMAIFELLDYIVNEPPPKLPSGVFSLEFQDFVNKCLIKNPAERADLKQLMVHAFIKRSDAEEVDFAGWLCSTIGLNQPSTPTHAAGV
Phosphatidylinositol 4,5-bisphosphate 3-kinase catalytic subunit alpha isoform, sequence (P42336 whole entry, canonical isoform): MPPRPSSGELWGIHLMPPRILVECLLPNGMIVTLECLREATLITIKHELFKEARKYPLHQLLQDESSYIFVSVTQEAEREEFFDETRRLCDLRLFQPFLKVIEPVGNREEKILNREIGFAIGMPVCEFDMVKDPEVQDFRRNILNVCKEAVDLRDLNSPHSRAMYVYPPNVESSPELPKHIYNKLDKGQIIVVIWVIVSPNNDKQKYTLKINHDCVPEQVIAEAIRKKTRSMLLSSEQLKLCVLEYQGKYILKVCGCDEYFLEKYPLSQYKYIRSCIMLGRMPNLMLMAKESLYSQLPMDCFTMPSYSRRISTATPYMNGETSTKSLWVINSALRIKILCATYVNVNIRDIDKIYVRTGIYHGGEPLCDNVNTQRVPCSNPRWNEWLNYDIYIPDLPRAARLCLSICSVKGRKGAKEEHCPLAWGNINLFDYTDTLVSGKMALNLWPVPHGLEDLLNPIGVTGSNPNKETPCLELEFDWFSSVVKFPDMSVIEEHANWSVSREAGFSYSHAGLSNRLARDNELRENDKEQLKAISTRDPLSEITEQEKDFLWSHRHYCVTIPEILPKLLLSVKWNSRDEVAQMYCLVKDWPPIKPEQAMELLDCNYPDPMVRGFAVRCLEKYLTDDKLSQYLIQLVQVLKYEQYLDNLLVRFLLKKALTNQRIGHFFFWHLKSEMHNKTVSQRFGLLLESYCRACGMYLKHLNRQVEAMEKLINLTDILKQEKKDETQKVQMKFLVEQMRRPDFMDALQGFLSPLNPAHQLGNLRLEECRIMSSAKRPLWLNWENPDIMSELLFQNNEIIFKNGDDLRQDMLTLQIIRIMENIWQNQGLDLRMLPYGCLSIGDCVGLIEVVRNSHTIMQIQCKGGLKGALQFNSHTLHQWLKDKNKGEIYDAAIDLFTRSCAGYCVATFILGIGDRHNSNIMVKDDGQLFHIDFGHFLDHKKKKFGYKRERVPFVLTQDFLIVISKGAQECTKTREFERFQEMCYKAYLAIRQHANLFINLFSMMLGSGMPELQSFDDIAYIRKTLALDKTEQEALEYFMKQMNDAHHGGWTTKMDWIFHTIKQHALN
Platelet-derived growth factor receptor beta, sequence (P09619 whole entry): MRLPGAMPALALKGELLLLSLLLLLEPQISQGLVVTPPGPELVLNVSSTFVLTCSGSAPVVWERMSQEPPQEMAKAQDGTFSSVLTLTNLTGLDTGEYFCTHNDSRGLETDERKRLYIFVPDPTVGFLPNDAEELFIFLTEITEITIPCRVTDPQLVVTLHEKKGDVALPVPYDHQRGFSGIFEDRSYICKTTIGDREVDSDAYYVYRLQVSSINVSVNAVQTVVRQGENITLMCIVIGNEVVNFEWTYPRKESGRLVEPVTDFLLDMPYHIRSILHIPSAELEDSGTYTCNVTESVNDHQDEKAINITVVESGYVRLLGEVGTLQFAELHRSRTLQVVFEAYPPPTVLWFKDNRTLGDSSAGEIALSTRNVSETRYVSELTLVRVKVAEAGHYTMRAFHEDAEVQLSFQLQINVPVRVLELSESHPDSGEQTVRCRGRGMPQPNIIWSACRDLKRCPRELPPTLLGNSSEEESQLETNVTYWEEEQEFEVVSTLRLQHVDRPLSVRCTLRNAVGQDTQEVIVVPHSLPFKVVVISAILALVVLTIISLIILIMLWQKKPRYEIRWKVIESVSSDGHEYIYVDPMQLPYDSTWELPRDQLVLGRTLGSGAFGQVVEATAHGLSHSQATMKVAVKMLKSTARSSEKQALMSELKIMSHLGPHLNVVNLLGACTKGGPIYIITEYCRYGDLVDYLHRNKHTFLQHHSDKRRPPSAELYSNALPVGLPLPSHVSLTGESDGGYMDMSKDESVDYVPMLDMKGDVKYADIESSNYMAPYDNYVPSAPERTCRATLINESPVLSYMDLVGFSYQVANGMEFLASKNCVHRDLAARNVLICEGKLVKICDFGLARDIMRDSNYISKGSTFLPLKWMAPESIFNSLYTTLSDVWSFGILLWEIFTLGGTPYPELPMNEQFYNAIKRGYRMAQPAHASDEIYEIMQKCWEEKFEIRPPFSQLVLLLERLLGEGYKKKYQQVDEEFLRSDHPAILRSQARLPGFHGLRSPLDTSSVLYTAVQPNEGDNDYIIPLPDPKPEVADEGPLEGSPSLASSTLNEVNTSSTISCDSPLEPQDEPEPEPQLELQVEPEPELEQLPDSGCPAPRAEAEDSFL
Angiopoietin-1 receptor, sequence (Q02763 whole entry): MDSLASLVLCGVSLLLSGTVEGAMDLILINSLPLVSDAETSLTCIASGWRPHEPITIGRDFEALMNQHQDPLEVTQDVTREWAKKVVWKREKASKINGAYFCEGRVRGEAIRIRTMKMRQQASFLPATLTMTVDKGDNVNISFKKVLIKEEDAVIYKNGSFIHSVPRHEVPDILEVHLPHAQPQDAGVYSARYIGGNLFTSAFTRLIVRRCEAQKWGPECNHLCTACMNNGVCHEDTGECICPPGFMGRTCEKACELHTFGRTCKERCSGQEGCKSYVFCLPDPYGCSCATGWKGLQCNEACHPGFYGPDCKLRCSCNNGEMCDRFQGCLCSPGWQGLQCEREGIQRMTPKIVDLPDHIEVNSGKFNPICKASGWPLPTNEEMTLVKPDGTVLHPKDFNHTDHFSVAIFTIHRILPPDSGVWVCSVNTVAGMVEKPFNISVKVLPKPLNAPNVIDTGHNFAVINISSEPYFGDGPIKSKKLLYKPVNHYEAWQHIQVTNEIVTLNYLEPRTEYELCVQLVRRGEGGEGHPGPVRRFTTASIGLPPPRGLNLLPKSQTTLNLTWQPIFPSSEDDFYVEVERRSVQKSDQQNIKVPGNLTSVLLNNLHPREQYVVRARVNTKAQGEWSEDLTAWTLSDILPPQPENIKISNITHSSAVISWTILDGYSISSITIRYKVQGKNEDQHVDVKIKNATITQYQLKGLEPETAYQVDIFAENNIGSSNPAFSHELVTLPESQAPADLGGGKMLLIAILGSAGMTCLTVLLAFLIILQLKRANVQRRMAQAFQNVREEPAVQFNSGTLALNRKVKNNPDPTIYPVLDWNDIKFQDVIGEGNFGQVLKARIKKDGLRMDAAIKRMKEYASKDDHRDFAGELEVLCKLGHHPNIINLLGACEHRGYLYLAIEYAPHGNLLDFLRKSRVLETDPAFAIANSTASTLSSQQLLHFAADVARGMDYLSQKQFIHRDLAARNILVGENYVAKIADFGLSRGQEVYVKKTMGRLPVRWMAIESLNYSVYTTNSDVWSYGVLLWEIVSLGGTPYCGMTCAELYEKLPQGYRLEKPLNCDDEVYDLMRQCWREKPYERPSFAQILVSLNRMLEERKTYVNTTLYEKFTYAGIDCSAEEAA
Receptor tyrosine-protein kinase erbB-4, sequence (Q15303 whole entry): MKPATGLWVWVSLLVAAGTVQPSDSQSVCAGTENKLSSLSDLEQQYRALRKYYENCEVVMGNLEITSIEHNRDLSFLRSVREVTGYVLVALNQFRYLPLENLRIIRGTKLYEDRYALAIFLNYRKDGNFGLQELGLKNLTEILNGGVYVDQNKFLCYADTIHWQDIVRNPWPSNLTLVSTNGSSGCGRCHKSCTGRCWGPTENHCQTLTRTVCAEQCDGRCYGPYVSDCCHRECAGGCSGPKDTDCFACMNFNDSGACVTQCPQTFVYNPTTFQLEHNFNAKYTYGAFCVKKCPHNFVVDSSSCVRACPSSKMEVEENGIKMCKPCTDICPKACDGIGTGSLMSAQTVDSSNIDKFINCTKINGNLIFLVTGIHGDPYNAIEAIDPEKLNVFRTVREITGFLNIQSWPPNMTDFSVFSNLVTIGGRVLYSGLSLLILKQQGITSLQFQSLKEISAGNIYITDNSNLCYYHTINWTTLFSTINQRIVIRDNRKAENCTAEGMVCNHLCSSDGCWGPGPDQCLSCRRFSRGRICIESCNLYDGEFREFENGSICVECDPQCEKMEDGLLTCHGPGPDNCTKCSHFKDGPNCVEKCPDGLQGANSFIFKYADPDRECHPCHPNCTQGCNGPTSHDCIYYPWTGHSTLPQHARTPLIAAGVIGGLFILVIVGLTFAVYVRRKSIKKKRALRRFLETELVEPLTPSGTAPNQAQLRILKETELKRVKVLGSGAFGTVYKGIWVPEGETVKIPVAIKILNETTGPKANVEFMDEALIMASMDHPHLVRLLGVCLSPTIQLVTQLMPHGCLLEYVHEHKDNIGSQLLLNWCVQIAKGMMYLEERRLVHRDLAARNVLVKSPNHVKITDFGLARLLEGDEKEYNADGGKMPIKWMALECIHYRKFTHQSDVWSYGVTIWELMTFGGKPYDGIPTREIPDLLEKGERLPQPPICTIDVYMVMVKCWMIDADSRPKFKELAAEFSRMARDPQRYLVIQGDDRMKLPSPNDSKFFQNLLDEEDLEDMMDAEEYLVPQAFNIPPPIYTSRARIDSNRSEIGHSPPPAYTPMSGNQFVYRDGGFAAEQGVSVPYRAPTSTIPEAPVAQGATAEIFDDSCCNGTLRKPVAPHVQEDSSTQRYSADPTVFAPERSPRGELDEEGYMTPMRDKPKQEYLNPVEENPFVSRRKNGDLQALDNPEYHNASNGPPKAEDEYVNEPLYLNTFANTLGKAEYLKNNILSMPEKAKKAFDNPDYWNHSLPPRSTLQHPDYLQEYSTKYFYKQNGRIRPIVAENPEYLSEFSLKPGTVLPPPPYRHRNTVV

CC[C@@H]1C(=O)N(C)c2cnc(Nc3ccc(C(=O)NC4CCN(C)CC4)cc3OC)nc2N1C1CCCC1 [BI-2536]
IC50 [1]: > 10 µM | IC50 [2]: > 10 µM | EC50 (BRO melanoma cell line): 0.002 µM | IC50 [3]: 9.91 µM | Activity (HeLa [4]): Active | IC50 [5]: > 10 µM | Activity (HeLa [6]): Active | IC50 [7]: > 10 µM | IC50 [8]: > 10 µM | T/C (HCT-116 [9]): 16% | IC50 [10]: > 10 µM | inhibition (Mus musculus): Active | IC50 [11]: > 10 µM | IC50 [12]: > 10 µM | Activity (HeLa [13]): inactive | IC50 [14]: > 10 µM | T/C (BXPC-3): 5% | IC50 [15]: > 10 µM | IC50 [16]: > 10 µM | Activity (HeLa [17]): Active | Activity (NCI-H460 [18]): Active | Activity (HeLa [19]): inactive | Activity (HeLa [20]): Active | Activity (TERT-RPE1 [21]): ~30% | IC50 [22]: 2.41 µM | IC50 (Ephrin type-A receptor 3): > 10 µM | Activity (HCT-116 [23]): Active | Activity (HeLa [24]): Active | Activity [25]: Non-Toxic | Activity (HeLa [26]): inactive | Activity (NCI-H460 [27]): Active | Activity (HeLa [28]): Active | Activity (HeLa [29]): Active | Activity (HCT-116 [30]): Active | IC50 [31]: > 10 µM | Activity (HeLa [32]): Active | Activity (NCI-H460 [33]): Active | IC50 [34]: > 10 µM | IC50 [35]: > 10 µM | IC50 (Angiopoietin-1 receptor): 6.55 µM | IC50 [36]: > 10 µM | Activity (HeLa [37]): Active | Activity (HeLa [38]): Active | Activity (HeLa [39]): Active | T/C (A549): 14% | Activity (HCT-116 [40]): 100% | IC50 [41]: > 10 µM | Activity (TERT-RPE1 [42]): ~70% | Activity [43]: Non-Toxic | Activity (HeLa [44]): Active | IC50 [45]: > 10 µM | IC50 [46]: > 10 µM | Activity (NCI-H460 [47]): Active

COc1cc(OC)c(/C=C/S(=O)(=O)Cc2ccc(OC)c(NCC(=O)O)c2)c(OC)c1 [RIGOSERTIB]
Activity (HeLa [48]): Active | Activity (HeLa [49]): Active | Activity (HeLa [50]): inactive | Activity (HeLa [51]): Active | EC50 (HeLa S3): 0.045 µM
